Test results as given in ChEMBL document CHEMBL3112480, “γ-Alkylidene-γ-lactones and isobutylpyrrol-2(5H)-ones analogues to rubrolides as inhibitors of biofilm formation by gram-positive and gram-negative bacteria” (Bioorg Med Chem Lett, 2014).
≈ marks a conversion by molar mass, not a printed value.

Legend:
[1] = system: Streptococcus mutans; assay: Antibacterial activity against Streptococcus mutans ATCC 25175 assessed as effect on planktonic growth at 0.17 ug/ml after 20 hrs relative to control; assay type: functional
[2] = system: Pseudomonas aeruginosa; assay: Antibacterial activity against Pseudomonas aeruginosa ATCC 27853 assessed as effect on planktonic growth at 2.73 ug/ml after 20 hrs relative to control; assay type: functional
[3] = system: Staphylococcus aureus; assay: Antibacterial activity against Staphylococcus aureus ATCC 25923 assessed as effect on planktonic growth at 1.37 ug/ml after 20 hrs relative to control; assay type: functional
[4] = system: Pseudomonas aeruginosa; assay: Antibacterial activity against Pseudomonas aeruginosa ATCC 27853 assessed as effect on planktonic growth at 0.68 ug/ml after 20 hrs relative to control; assay type: functional
[5] = system: Staphylococcus epidermidis; assay: Antibacterial activity against Staphylococcus epidermidis ATCC 35547 assessed as effect on planktonic growth at 87.5 ug/ml after 20 hrs relative to control; assay type: functional
[6] = system: Staphylococcus epidermidis; assay: Antibacterial activity against Staphylococcus epidermidis ATCC 35547 assessed as effect on planktonic growth at 0.68 ug/ml after 20 hrs relative to control; assay type: functional
[7] = system: Pseudomonas aeruginosa; assay: Antibacterial activity against Pseudomonas aeruginosa ATCC 27853 assessed as inhibition of biofilm formation after 20 hrs by crystal-violet staining method; assay type: functional, organism-based
[8] = system: Pseudomonas aeruginosa; assay: Antibacterial activity against Pseudomonas aeruginosa ATCC 27853 assessed as effect on planktonic growth at 87.5 ug/ml after 20 hrs relative to control; assay type: functional
[9] = system: Staphylococcus epidermidis; assay: Antibacterial activity against Staphylococcus epidermidis ATCC 35547 assessed as effect on planktonic growth at 5.5 ug/ml after 20 hrs relative to control; assay type: functional
[10] = system: Pseudomonas aeruginosa; assay: Antibacterial activity against Pseudomonas aeruginosa ATCC 27853 assessed as effect on planktonic growth at 1.37 ug/ml after 20 hrs relative to control; assay type: functional
[11] = system: Staphylococcus epidermidis; assay: Antibacterial activity against Staphylococcus epidermidis ATCC 35547 assessed as effect on planktonic growth at 2.73 ug/ml after 20 hrs relative to control; assay type: functional
[12] = system: Staphylococcus aureus; assay: Antibacterial activity against Staphylococcus aureus ATCC 25923 assessed as effect on planktonic growth at 5.5 ug/ml after 20 hrs relative to control; assay type: functional
[13] = system: Staphylococcus epidermidis; assay: Antibacterial activity against Staphylococcus epidermidis ATCC 35547 assessed as effect on planktonic growth at 1.37 ug/ml after 20 hrs relative to control; assay type: functional
[14] = system: Pseudomonas aeruginosa; assay: Antibacterial activity against Pseudomonas aeruginosa ATCC 27853 assessed as effect on planktonic growth at 21.9 ug/ml after 20 hrs relative to control; assay type: functional
[15] = system: Streptococcus mutans; assay: Antibacterial activity against Streptococcus mutans ATCC 25175 assessed as effect on planktonic growth at 10.9 ug/ml after 20 hrs relative to control; assay type: functional
[16] = system: Staphylococcus aureus; assay: Antibacterial activity against Staphylococcus aureus ATCC 25923 assessed as effect on planktonic growth at 2.73 ug/ml after 20 hrs relative to control; assay type: functional
[17] = system: Staphylococcus aureus; assay: Antibacterial activity against Staphylococcus aureus ATCC 25923 assessed as effect on planktonic growth at 21.9 ug/ml after 20 hrs relative to control; assay type: functional
[18] = system: Staphylococcus aureus; assay: Antibacterial activity against Staphylococcus aureus ATCC 25923 assessed as effect on planktonic growth at 87.5 ug/ml after 20 hrs relative to control; assay type: functional
[19] = system: Pseudomonas aeruginosa; assay: Antibacterial activity against Pseudomonas aeruginosa ATCC 27853 assessed as effect on planktonic growth at 10.9 ug/ml after 20 hrs relative to control; assay type: functional
[20] = system: Staphylococcus epidermidis; assay: Antibacterial activity against Staphylococcus epidermidis ATCC 35547 assessed as effect on planktonic growth at 21.9 ug/ml after 20 hrs relative to control; assay type: functional
[21] = system: Staphylococcus epidermidis; assay: Antibacterial activity against Staphylococcus epidermidis ATCC 35547 assessed as effect on planktonic growth at 0.34 ug/ml after 20 hrs relative to control; assay type: functional
[22] = system: Staphylococcus aureus; assay: Antibacterial activity against Staphylococcus aureus ATCC 25923 assessed as effect on planktonic growth at 0.34 ug/ml after 20 hrs relative to control; assay type: functional
[23] = system: Staphylococcus aureus; assay: Antibacterial activity against Staphylococcus aureus ATCC 25923 assessed as effect on planktonic growth at 0.17 ug/ml after 20 hrs relative to control; assay type: functional
[24] = system: Streptococcus mutans; assay: Antibacterial activity against Streptococcus mutans ATCC 25175 assessed as effect on planktonic growth at 21.9 ug/ml after 20 hrs relative to control; assay type: functional
[25] = system: Streptococcus mutans; assay: Antibacterial activity against Streptococcus mutans ATCC 25175 assessed as inhibition of biofilm formation at 44 ug/ml after 20 hrs by crystal-violet staining method relative to control; assay type: functional; conditions: ATCC 25175, 20 h
[26] = system: Staphylococcus aureus; assay: Antibacterial activity against Staphylococcus aureus ATCC 25923 assessed as effect on planktonic growth at 10.9 ug/ml after 20 hrs relative to control; assay type: functional
[27] = system: Staphylococcus epidermidis; assay: Antibacterial activity against Staphylococcus epidermidis ATCC 35547 assessed as effect on planktonic growth at 0.17 ug/ml after 20 hrs relative to control; assay type: functional
[28] = system: Streptococcus mutans; assay: Antibacterial activity against Streptococcus mutans ATCC 25175 assessed as effect on planktonic growth at 0.34 ug/ml after 20 hrs relative to control; assay type: functional
[29] = system: Streptococcus mutans; assay: Antibacterial activity against Streptococcus mutans ATCC 25175 assessed as effect on planktonic growth at 87.5 ug/ml after 20 hrs relative to control; assay type: functional
[30] = system: Streptococcus mutans; assay: Antibacterial activity against Streptococcus mutans ATCC 25175 assessed as effect on planktonic growth at 43.8 ug/ml after 20 hrs relative to control; assay type: functional
[31] = system: Streptococcus mutans; assay: Antibacterial activity against Streptococcus mutans ATCC 25175 assessed as effect on planktonic growth at 0.68 ug/ml after 20 hrs relative to control; assay type: functional
[32] = system: Staphylococcus epidermidis; assay: Antibacterial activity against Staphylococcus epidermidis ATCC 35547 assessed as inhibition of biofilm formation after 20 hrs by crystal-violet staining method; assay type: functional, organism-based
[33] = system: Staphylococcus aureus; assay: Antibacterial activity against Staphylococcus aureus ATCC 25923 assessed as effect on planktonic growth at 0.68 ug/ml after 20 hrs relative to control; assay type: functional
[34] = system: Staphylococcus epidermidis; assay: Antibacterial activity against Staphylococcus epidermidis ATCC 35547 assessed as effect on planktonic growth at 43.8 ug/ml after 20 hrs relative to control; assay type: functional
[35] = system: Streptococcus mutans; assay: Antibacterial activity against Streptococcus mutans ATCC 25175 assessed as effect on planktonic growth at 1.37 ug/ml after 20 hrs relative to control; assay type: functional
[36] = system: Staphylococcus epidermidis; assay: Antibacterial activity against Staphylococcus epidermidis ATCC 35547 assessed as effect on planktonic growth at 10.9 ug/ml after 20 hrs relative to control; assay type: functional
[37] = system: Pseudomonas aeruginosa; assay: Antibacterial activity against Pseudomonas aeruginosa ATCC 27853 assessed as effect on planktonic growth at 0.34 ug/ml after 20 hrs relative to control; assay type: functional
[38] = system: Streptococcus mutans; assay: Antibacterial activity against Streptococcus mutans ATCC 25175 assessed as effect on planktonic growth at 2.73 ug/ml after 20 hrs relative to control; assay type: functional
[39] = system: Pseudomonas aeruginosa; assay: Antibacterial activity against Pseudomonas aeruginosa ATCC 27853 assessed as effect on planktonic growth at 5.5 ug/ml after 20 hrs relative to control; assay type: functional
[40] = system: Pseudomonas aeruginosa; assay: Antibacterial activity against Pseudomonas aeruginosa ATCC 27853 assessed as effect on planktonic growth at 43.8 ug/ml after 20 hrs relative to control; assay type: functional
[41] = system: Staphylococcus aureus; assay: Antibacterial activity against Staphylococcus aureus ATCC 25923 assessed as effect on planktonic growth at 43.8 ug/ml after 20 hrs relative to control; assay type: functional
[42] = system: Streptococcus mutans; assay: Antibacterial activity against Streptococcus mutans ATCC 25175 assessed as effect on planktonic growth at 5.5 ug/ml after 20 hrs relative to control; assay type: functional
[43] = system: Pseudomonas aeruginosa; assay: Antibacterial activity against Pseudomonas aeruginosa ATCC 27853 assessed as effect on planktonic growth at 0.17 ug/ml after 20 hrs relative to control; assay type: functional

## COc1ccc(C)cc1C1=C(Br)C(=O)N(CC(C)C)/C1=C\c1cccc(Cl)c1
[1]
  Activity: -4.4%
[2]
  Activity: 3%
[3]
  Activity: 12%
[4]
  Activity: 0.8%
[5]
  Activity: -12.6%
[6]
  Activity: -4.2%
[7]
  inhibition: Dose-dependent effect
[7]; ATCC 27853, 20 h
  IC50: 0.6 µg/mL (≈ 1.3 µM)
[8]
  Activity: 35.3%
[9]
  Activity: 1.1%
[10]
  Activity: 0%
[11]
  Activity: 11.4%
[12]
  Activity: 18.4%
[13]
  Activity: 6.4%
[14]
  Activity: 21.3%
[15]
  Activity: -32.3%
[16]
  Activity: 12.6%
[17]
  Activity: 4%
[18]
  Activity: 4.8%
[19]
  Activity: 13.5%
[20]
  Activity: -38.6%
[21]
  Activity: 2.4%
[22]
  Activity: 11.8%
[23]
  Activity: 10.8%
[24]
  Activity: -33.6%
[25]
  inhibition at 44 µg/mL: 34%
[26]
  Activity: 13.2%
[27]
  Activity: 5.6%
[28]
  Activity: -4.1%
[29]
  Activity: -46.7%
[30]
  Activity: -42.5%
[31]
  Activity: -6%
[32]
  inhibition: Dose-dependent effect
[32]; ATCC 35547, 20 h
  IC50: 67.4 µg/mL (≈ 146 µM)
[33]
  Activity: 9.2%
[34]
  Activity: -38.8%
[35]
  Activity: -14.9%
[36]
  Activity: -19.8%
[37]
  Activity: 0.8%
[38]
  Activity: -18.8%
[39]
  Activity: 8.8%
[40]
  Activity: 25.6%
[41]
  Activity: 6.6%
[42]
  Activity: -26.3%
[43]
  Activity: 0.9%
